{
  "source": "patent US20210038559A1",
  "about": "“CANNABINOIDS AND DERIVATIVES FOR PROMOTING IMMUNOGENICITY OF TUMOR AND INFECTED CELLS” (priority 2018, published 2021)",
  "data": [
    {"test_system": "MHC-I expression by COLO 205 cells", "assay": "cells", "assay_type": "cell-based, human", "details": "not given", "experimental": "(§1) A panel of synthetic cannabinoids (Cayman Chemical, #9002891) was tested for MHC class I-inducing capability in COLO 205 cells as described above. COLO 205 cells were treated with the compounds at a concentration of 35 μM and evaluated for cell surface MHC class I expression after 48 hours. Cells were harvested, stained with MHC-I mAb W6/32 (Thermo Fisher). MHC-I expression was determined by flow cytometry.", "units": {"Induction Fold": "Fold"}, "values": [
      {"smiles": "C#CCCCCCCCCCNC(=O)Oc1cccc(-c2cccc(C(N)=O)c2)c1", "note": "[Example 182, 3′-carbamoyl-biphenyl-3-yl-undecynecarbamate]", "Induction Fold": 1.93},
      {"smiles": "CCCCCCn1cccc1C(=O)c1cccc2ccccc12", "note": "[Example 202, (1-hexyl-1H-pyrrol-2-yl)-1-naphthalenyl-methanone]", "Induction Fold": 1.87},
      {"smiles": "CCC(F)CCn1nc(C(=O)N[C@H](C(=O)OC)C(C)C)c2ccccc21", "note": "(some centres unmarked) [Example 210, methyl (1-(3-fluoropentyl)-1H-indazole-3-carbonyl)-1-valinate]", "Induction Fold": 1.84},
      {"smiles": "CCCCCn1cc(C(=O)c2cc(C)cc3ccccc23)c2ccccc21", "note": "[Example 219, (3-methylnaphthalen-1-y1)(1-pentyl-1H-indol-3-yl)methanone]", "Induction Fold": 1.78}
    ]},
    {"test_system": "MHC-I expression by COLO 205 cells", "assay": "cells", "assay_type": "cell-based, human", "details": "Homo sapiens, COLO 205, 48 h, MHC-I expression, COLO 205 cells, compounds at 35 μM, 48 hours, flow cytometry (W6/32); read-out: Induction Fold", "experimental": "as §1", "values": [
      {"smiles": "O=C(Nc1cccc2ccccc12)c1nn(CCCCCF)c2ccccc12", "note": "[Example 184, 1-(5-fluoropentyl)-N-1-naphthalenyl-1H-indazole-3-carboxamide]", "fold induction at 35 µM": 1.9},
      {"smiles": "CC1(C)C(C(=O)c2nn(CCCCCF)c3ccccc23)C1(C)C", "note": "[Example 185, (1-(5-fluoropentyl)-1H-indazol-3-yl)(2,2,3,3-tetramethylcyclopropyl)methanone]", "fold induction at 35 µM": 1.9},
      {"smiles": "CC(C)(C)C(NC(=O)c1cn(Cc2ccccc2)c2ccccc12)C(N)=O", "note": "(centres unmarked) [Example 186, N-(1-amino-3,3-dimethyl-1-oxobutan-2-yl)-1-benzyl-1H-indole-3-carboxamide]", "fold induction at 35 µM": 1.9},
      {"smiles": "CCCC(C)n1cc(C(=O)c2cccc3ccccc23)c2ccccc21", "note": "(centres unmarked) [Example 187, naphthalen-1-yl(1-(pentan-2-yl)-1H-indol-3-yl)methanone]", "fold induction at 35 µM": 1.9},
      {"smiles": "Cc1ccc(C(=O)c2cn(CCCCCCl)c3ccccc23)c2ccccc12", "note": "[Example 189, (1-(5-chloropentyl)-1H-indol-3-yl)(4-methylnaphthalen-1-yl)methanone]", "fold induction at 35 µM": 1.89},
      {"smiles": "CCCCCn1cc(C(=O)Cc2ccccc2Cl)c2ccccc21", "note": "[Example 190, 2-(2-chlorophenyl)-1-(1-pentyl-1H-indol-3-yl)-ethanone]", "fold induction at 35 µM": 1.89},
      {"smiles": "CCCCCn1cc(C(=O)c2cccc3c(C)cccc23)c2ccccc21", "note": "[Example 191, (5-methylnaphthalen-1-yl)(1-pentyl-1H-indol-3-yl)methanone]", "fold induction at 35 µM": 1.89},
      {"smiles": "CCCCCc1cc(OC)c2cc(Cc3ccccc3OC)c(=O)oc2c1", "note": "[Example 200, 5-methoxy-3-[(2-methoxyphenyl)methyl]-7-pentyl-2H-1-benzopyran-2-one]", "fold induction at 35 µM": 1.88},
      {"smiles": "CCC(CC)n1cc(C(=O)c2ccc3ccccc3c2)c2ccccc21", "note": "[Example 201, [1-(1-ethylpropyl)-1H-indol-3-yl]-2-naphthalenyl-methanone]", "fold induction at 35 µM": 1.87},
      {"smiles": "Cc1ccc(C(=O)c2cn(CCN3CCOCC3)c3ccccc23)c2ccccc12", "note": "[Example 203, (4-methyl-1-naphthalenyl)[1-[2-(4-morpholinyl)ethyl]-1H-indol-3-yl]-methanone]", "fold induction at 35 µM": 1.87},
      {"smiles": "O=C(Oc1cccc2cccnc12)c1cn(Cc2ccc(F)cc2)c2ccccc12", "note": "[Example 204, 1-[(4-fluorophenyl)methyl]-1H-indole-3-carboxylic acid, 8-quinolinyl ester]", "fold induction at 35 µM": 1.87},
      {"smiles": "CCCCCn1cc(C(=O)c2ccc(Br)c3ccccc23)c2ccccc21", "note": "[Example 205, (4-bromo-1-naphthalenyl)(1-pentyl-1H-indol-3-yl)-methanone]", "fold induction at 35 µM": 1.86},
      {"smiles": "O=C(Oc1cccc2ncccc12)c1cn(CC2CCCCC2)c2ccccc12", "note": "[Example 206, quinolin-5-yl 1-(cyclohexylmethyl)-1H-indole-3-carboxylate]", "fold induction at 35 µM": 1.86},
      {"smiles": "CCCCC(F)Cn1cc(C(=O)c2cccc3ccccc23)c2ccccc21", "note": "(centres unmarked) [Example 207, (1-(2-fluorohexyl)-1H-indol-3-yl)(naphthalen-1-yl)methanone]", "fold induction at 35 µM": 1.85},
      {"smiles": "O=C(Nc1cccc2cccnc12)c1cn(CCCCCF)c2ccccc12", "note": "[Example 208, 1-(5-fluoropentyl)-N-(quinolin-8-yl)-1H-indole-3-carboxamide]", "fold induction at 35 µM": 1.84},
      {"smiles": "CCCCCn1cc(C(=O)c2ccc(C)c3ccccc23)c2ccccc21", "note": "[Example 211, (4-methyl-1-naphthalenyl)(1-pentyl-1H-indol-3-yl)-methanone]", "fold induction at 35 µM": 1.83},
      {"smiles": "NC(=O)[C@H](Cc1ccccc1)NC(=O)c1nn(Cc2ccc(F)cc2)c2ccccc12", "note": "[Example 213, N-[(1S)-2-amino-2-oxo-1-(phenylmethyl)ethyl]-1-[(4-fluorophenyl)methyl]-1H-indazole-3-carboxamide]", "fold induction at 35 µM": 1.81},
      {"smiles": "O=C(c1cn(CCCCCF)c2ccccc12)N1CCCC1", "note": "[Example 215, (1-(5-fluoropentyl)-1H-indol-3-yl)(pyrrolidin-1-yl)methanone]", "fold induction at 35 µM": 1.8},
      {"smiles": "CCc1ccc(C(=O)c2cn(CCCCCF)c3ccccc23)c2ccccc12", "note": "[Example 216, (4-ethyl-1-naphthalenyl)[1-(5-fluoropentyl)-1H-indol-3-yl]-methanone]", "fold induction at 35 µM": 1.79},
      {"smiles": "CC(C)(C)C(NC(=O)c1nn(Cc2ccccc2)c2ccccc12)C(N)=O", "note": "(centres unmarked) [Example 217, N-(1-amino-3,3-dimethyl-1-oxobutan-2-yl)-1-benzyl-1H-indazole-3-carboxamide]", "fold induction at 35 µM": 1.79},
      {"smiles": "O=C(Oc1ccc2cnccc2c1)c1cn(CCCCCF)c2ccccc12", "note": "[Example 218, isoquinolin-6-yl 1-(5-fluoropentyl)-1H-indole-3-carboxylate]", "fold induction at 35 µM": 1.78},
      {"smiles": "O=C(c1cccc2ccccc12)c1cn(Cc2ccc(F)cc2)c2ccccc12", "note": "[Example 220, (1-(4-fluorobenzyl)-1H-indol-3-yl)(naphthalen-1-yl)methanone]", "fold induction at 35 µM": 1.77},
      {"smiles": "CC(C)[C@H](NC(=O)c1nn(Cc2cccc(F)c2)c2ccccc12)C(N)=O", "note": "[Example 221, N-[(1S)-1-(aminocarbonyl)-2-methylpropyl]-1-[(3-fluorophenyl)methyl]-1H-indazole-3-carboxamide]", "fold induction at 35 µM": 1.77},
      {"smiles": "CC1(C)C(C(=O)c2cn(CCCCCBr)c3ccccc23)C1(C)C", "note": "[Example 222, [1-(5-bromopentyl)-1H-indol-3-yl](2,2,3,3-tetramethylcyclopropyl)-methanone]", "fold induction at 35 µM": 1.76},
      {"smiles": "CCCCCn1cc(C(=O)c2ccc(Cl)c3ccccc23)c2ccccc21", "note": "[Example 223, (4-chloro-1-naphthalenyl)(1-pentyl-1H-indol-3-yl)-methanone]", "fold induction at 35 µM": 1.76},
      {"smiles": "CCCCCn1nc(C(=O)Nc2cccc3ccccc23)c2ccccc21", "note": "[Example 224, N-1-naphthalenyl-1-pentyl-1H-indazole-3-carboxamide]", "fold induction at 35 µM": 1.75},
      {"smiles": "CC(C)CCCCn1cc(C(=O)C2C(C)(C)C2(C)C)c2ccccc21", "note": "[Example 225, (1-(5-methylhexyl)-1H-indol-3-yl)(2,2,3,3-tetramethylcyclopropyl)methanone]", "fold induction at 35 µM": 1.75},
      {"smiles": "O=C(Nc1cccc(-c2ccccc2)c1)OC1CCCCC1", "note": "[Example 226, N-[1,1′-biphenyl]-3-yl-carbamic acid, cyclohexyl ester]", "fold induction at 35 µM": 1.74},
      {"smiles": "NC(=O)[C@H](Cc1ccccc1)NC(=O)c1nn(CCCCCF)c2ccccc12", "note": "[Example 227, (S)-N-(1-amino-1-oxo-3-phenylpropan-2-yl)-1-(5-fluoropentyl)-1H-indazole-3-carboxamide]", "fold induction at 35 µM": 1.72},
      {"smiles": "CC(C)(NC(=O)c1nn(CCCCCF)c2ccccc12)c1ccccc1", "note": "[Example 228, 1-(5-fluoropentyl)-N-(1-methyl-1-phenylethyl)-1H-indazole-3-carboxamide]", "fold induction at 35 µM": 1.72},
      {"smiles": "O=C(c1nn(CCCCCF)c2ccccc12)N1CCCC1", "note": "[Example 230, (1-(5-fluoropentyl)-1H-indazol-3-yl)(pyrrolidin-1-yl)methanone]", "fold induction at 35 µM": 1.72},
      {"smiles": "CCCCCn1cc(C(=O)c2cccc3ccc(CC)cc23)c2ccccc21", "note": "[Example 231, (7-ethyl-1-naphthalenyl)(1-pentyl-1H-indol-3-yl)-methanone]", "fold induction at 35 µM": 1.72},
      {"smiles": "CCCCCn1nc(C(=O)Nc2cccc3cccnc23)c2ccccc21", "note": "[Example 232, 1-pentyl-N-(quinolin-8-yl)-1H-indazole-3-carboxamide]", "fold induction at 35 µM": 1.71},
      {"smiles": "CC(F)CCCCn1cc(C(=O)c2cccc3ccccc23)c2ccccc21", "note": "(centres unmarked) [Example 233, (1-(5-fluorohexyl)-1H-indol-3-yl)(naphthalen-1-yl)methanone]", "fold induction at 35 µM": 1.71},
      {"smiles": "CCCCCn1cc(C(=O)c2cc(OC)cc3ccccc23)c2ccccc21", "note": "[Example 234, (3-methoxynaphthalen-1-yl)(1-pentyl-1H-indol-3-yl)methanone]", "fold induction at 35 µM": 1.71},
      {"smiles": "CC(F)CCCn1cc(C(=O)C2C(C)(C)C2(C)C)c2ccccc21", "note": "(centres unmarked) [Example 235, (1-(4-fluoropentyl)-1H-indol-3-yl)(2,2,3,3-tetramethylcyclopropyl)methanone]", "fold induction at 35 µM": 1.7},
      {"smiles": "CCOC(=O)[C@@H](NC(=O)c1nn(CCCCCF)c2ccccc12)C(C)C", "note": "[Example 236, ethyl (1-(5-fluoropentyl)-1H-indazole-3-carbonyl)-L-valinate]", "fold induction at 35 µM": 1.7}
    ]},
    {"test_system": "MHC-I expression by COLO 205 cells", "assay": "cells", "assay_type": "cell-based, human", "details": "MHC-I expression, COLO 205 cells, compounds at 35 μM, 48 hours, flow cytometry (W6/32)", "experimental": "as §1", "units": {"Induction Fold": "Fold"}, "values": [
      {"smiles": "CCCCCn1nc(C(=O)N[C@H](C(=O)OC)C(C)C)c2ccccc21", "note": "[Example 183, N-[(1-pentyl-1H-indazol-3-yl)carbonyl]-1-valine, methyl ester]", "Induction Fold": 1.91},
      {"smiles": "CCCC(C)(C)c1ccc2c(c1)OC(C)(C)[C@@H]1CC=C(C)C[C@@H]21", "note": "[Example 188, 3-(1,1-dimethylbutyl)-6aR,7,10,10aR-tetrahydro-6,6,9-trimethyl-6H-dibenzo[b,d]pyran]", "Induction Fold": 1.90},
      {"smiles": "COC(=O)[C@@H](NC(=O)c1cn(CC2CCCCC2)c2ccccc12)C(C)C", "note": "[Example 229, methyl (1-(cyclohexylmethyl)-1H-indole-3-carbonyl)-1-valinate]", "Induction Fold": 1.72}
    ]}
  ]
}
